Data as given in ChEMBL document CHEMBL2010765, “Structure-activity relationship (SAR) development and discovery of potent indole-based inhibitors of the hepatitis C virus (HCV) NS5B polymerase” (J Med Chem, 2012).

Key:
Hepatitis C virus [1] = assay: Inhibition of HCV subtype 1b NS5B Cdelta21 RNA dependent RNA polymerase expressed in Escherichia coli JM109 assessed as inhibition of [alpha32P]CTP incorporation after 1 hr by scintillation assay; design: species or system Hepatitis C virus subtype 1b; conditions: JM 109, 1 h
Hepatitis C virus [2] = assay: Antiviral activity against HCV infected in human hepatoma cells; format: functional, organism-based, Hepacivirus hominis
[3] = AUC (0 to 24 hrs) in rat at 10 mg/kg, po; format: ADME, organism-based; design: time < 24 hr, dose 10 mg/kg, route oral; conditions: plasma

SMILES	IC50 (Hepatitis C virus [1]) [nM]	EC50 (Hepatitis C virus [2]) [nM]	AUC(0-t) at 24 h [3] [µM·h]
O=C(O)c1c(-c2ccc[nH]c2=O)c2cc(C(F)(F)F)ccc2n1Cc1ccccc1F	9	100	–
CCOc1ccc2c(c1)c(-c1ccc[nH]c1=O)c(C(=O)O)n2Cc1cc(F)ccc1F	79	100	–
Cc1ccc2c(c1)c(-c1ccc[nH]c1=O)c(C(=O)O)n2Cc1cc(F)ccc1F	8	1100	–
Nc1cc(Cn2c(C(=O)O)c(-c3ccc[nH]c3=O)c3cc(C(F)(F)F)ccc32)ccn1	17	100	< 0.1
NC(=O)c1ccc(F)c(Cn2c(C(=O)O)c(-c3ccc[nH]c3=O)c3cc(C(F)(F)F)ccc32)c1	7	100	–
O=C(O)c1c(-c2ccc[nH]c2=O)c2cc(CC(F)(F)F)ccc2n1Cc1cc(F)ccc1F	8	100	–
Cc1cc2c(-c3ccc[nH]c3=O)c(C(=O)NS(=O)(=O)C3CC3)n(Cc3cc(F)ccc3F)c2cc1Cl	5	150	–
Nc1cc(Cn2c(C(=O)O)c(-c3ccc[nH]c3=O)c3cc(OC(F)(F)F)ccc32)ccn1	16	100	–
Nc1cc(Cn2c(C(=O)O)c(-c3ccc[nH]c3=O)c3cc(-c4cccc(=O)[nH]4)ccc32)ccn1	7000	100	–
O=C(O)c1c(-c2ccc[nH]c2=O)c2cc(C(F)(F)F)ccc2n1Cc1ccc(OC(F)F)cc1	67	100	–
O=C(NS(=O)(=O)C1CC1)c1c(-c2ccc[nH]c2=O)c2cc(CC(F)(F)F)ccc2n1Cc1cc(F)ccc1F	7	230	0.67
O=C(O)c1c(-c2ccc[nH]c2=O)c2cc(Br)ccc2n1Cc1cc(F)ccc1F	3	100	–
COc1ccc2c(c1)c(-c1ccc[nH]c1=O)c(C(=O)O)n2Cc1cc(F)ccc1F	15	100	–
CC1(c2ccc3c(c2)c(-c2ccc[nH]c2=O)c(C(=O)O)n3Cc2cc(F)ccc2F)CC1	9	100	–
CCc1ccc2c(c1)c(-c1ccc[nH]c1=O)c(C(=O)NS(=O)(=O)C1CC1)n2Cc1cc(F)ccc1F	3	60	12
O=C(O)c1c(-c2ccc[nH]c2=O)c2cc(OC(F)(F)F)ccc2n1Cc1cc(F)ccc1F	24	100	–
Cc1ccc2c(c1)c(-c1ccc[nH]c1=O)c(C(=O)NS(=O)(=O)C(C)C)n2Cc1cc(F)ccc1F	7	90	6.8
Cc1ccc(Cn2c(C(=O)O)c(-c3ccc[nH]c3=O)c3cc(C(F)(F)F)ccc32)c(C)c1	16	100	–
COc1ccc(Cn2c(C(=O)O)c(-c3ccc[nH]c3=O)c3cc(C(F)(F)F)ccc32)cc1	25	100	–
Nc1cc(Cn2c(C(=O)O)c(-c3ccc[nH]c3=O)c3c(Cl)c(Cl)ccc32)ccn1	750	100	–
O=C(NS(=O)(=O)C1CC1)c1c(-c2ccc[nH]c2=O)c2cc(C(F)(F)F)ccc2n1Cc1cc(F)ccc1F	3	50	4.8
CCc1ccc2c(c1)c(-c1ccc[nH]c1=O)c(C(=O)NS(C)(=O)=O)n2Cc1cc(F)ccc1F	6	150	72
Nc1cc(Cn2c(C(=O)O)c(-c3ccc[nH]c3=O)c3cc(Cl)ccc32)ccn1	53	–	–
CCc1cc2c(-c3ccc[nH]c3=O)c(C(=O)NS(=O)(=O)C3CC3)n(Cc3cc(F)ccc3F)c2cc1F	5	60	6.4
CC(=O)c1ccc2c(c1)c(-c1ccc[nH]c1=O)c(C(=O)O)n2Cc1ccnc(N)c1	330	100	–

SMILES	IC50 (Hepatitis C virus [1]) [nM]	EC50 (Hepatitis C virus [2]) [nM]	AUC(0-t) at 24 h [3] [µM·h]
CC(C)(C)c1ccc2c(c1)c(-c1ccc[nH]c1=O)c(C(=O)O)n2Cc1cc(F)ccc1F	8	100	–
CCc1ccc2c(c1)c(-c1ccc[nH]c1=O)c(C(=O)NS(=O)(=O)CC)n2Cc1cc(F)ccc1F	6	80	4.6
Nc1cc(Cn2c(C(=O)O)c(-c3ccc[nH]c3=O)c3cc(O)ccc32)ccn1	> 20000	100	–
CCc1ccc2c(c1)c(-c1ccc[nH]c1=O)c(C(=O)NS(=O)(=O)C(C)C)n2Cc1cc(F)ccc1F	5	100	0.8
O=C(O)c1c(-c2ccccc2F)c2cc(Cl)ccc2n1Cc1ccccc1	–	> 100000	–
CS(=O)(=O)c1ccc2c(c1)c(-c1ccc[nH]c1=O)c(C(=O)O)n2Cc1ccnc(N)c1	1400	100	–
CCS(=O)(=O)NC(=O)c1c(-c2ccc[nH]c2=O)c2cc(C)ccc2n1Cc1cc(F)ccc1F	10	200	11
Cc1cc2c(-c3ccc[nH]c3=O)c(C(=O)NS(=O)(=O)C3CC3)n(Cc3cc(F)ccc3F)c2cc1C(F)(F)F	7	280	0.69
CC(C)(C)c1ccc2c(c1)c(-c1ccc[nH]c1=O)c(C(=O)NS(=O)(=O)C1CC1)n2Cc1cc(F)ccc1F	6	50	8
Cc1ccccc1Cn1c(C(=O)O)c(-c2ccc[nH]c2=O)c2cc(C(F)(F)F)ccc21	9	100	–
Nc1cc(Cn2c(C(=O)O)c(-c3ccc[nH]c3=O)c3cc(Cl)c(Cl)cc32)ccn1	47	100	–
CC/C=C/c1ccc2c(c1)c(-c1ccc[nH]c1=O)c(C(=O)O)n2Cc1cc(F)ccc1F	150	100	–
Cc1ccc2c(c1)c(-c1ccc[nH]c1=O)c(C(=O)NS(=O)(=O)C1CC1)n2Cc1cc(F)ccc1F	6	90	9.1
C#Cc1ccc2c(c1)c(-c1ccc[nH]c1=O)c(C(=O)O)n2Cc1ccnc(N)c1	48	100	–
O=C(O)c1c(-c2ccc[nH]c2=O)c2cc(C(F)(F)F)ccc2n1Cc1cc(F)ccc1F	4	100	–
Cc1ccc2c(c1)c(-c1ccc[nH]c1=O)c(C(=O)NS(C)(=O)=O)n2Cc1cc(F)ccc1F	7	490	22
CC1(c2ccc3c(c2)c(-c2ccc[nH]c2=O)c(C(=O)NS(=O)(=O)C2CC2)n3Cc2cc(F)ccc2F)CC1	6	600	11
Cc1cccc(Cn2c(C(=O)O)c(-c3ccc[nH]c3=O)c3cc(C(F)(F)F)ccc32)c1F	5	100	–
CCc1ccc2c(c1)c(-c1ccc[nH]c1=O)c(C(=O)O)n2Cc1cc(F)ccc1F	4	100	–
O=C(O)c1c(-c2ccc[nH]c2=O)c2cc(C(F)(F)F)ccc2n1Cc1ccc(F)cc1F	25	100	–
O=C(NS(=O)(=O)C1CC1)c1c(-c2ccc[nH]c2=O)c2cc(C(F)(F)F)c(F)cc2n1Cc1cc(F)ccc1F	7	280	–
Nc1cc(Cn2c(C(=O)O)c(-c3ccc[nH]c3=O)c3cc(Br)ccc32)ccn1	47	100	–
Nc1cc(Cn2c(C(=O)O)c(-c3ccc[nH]c3=O)c3cc(C4CC4)ccc32)ccn1	65	100	–
Nc1cc(Cn2c(C(=O)O)c(-c3ccc[nH]c3=O)c3c(Br)cccc32)ccn1	4000	100	–
